Assay results published in patent US7897815B2, “Hexafluoroisopropanol derivatives” (Hoffmann-La Roche Inc., priority 2004, dated 2011).

Legend:
[1] = biological target: T1, human LXR alpha (GST-LXRα-LBD) (Homo sapiens, UniProt Q13133); test: Radioligand binding assay (SPA), LXR alpha; settings: GST-LXRα-LBD on SPA beads, read-out: LXRalpha Binding IC50
T1 construct: human LXR alpha (aa 164 to 447); made in house; host or cells: E. coli BL21 (pLysS)
T1 sequence (Q13133 164-447): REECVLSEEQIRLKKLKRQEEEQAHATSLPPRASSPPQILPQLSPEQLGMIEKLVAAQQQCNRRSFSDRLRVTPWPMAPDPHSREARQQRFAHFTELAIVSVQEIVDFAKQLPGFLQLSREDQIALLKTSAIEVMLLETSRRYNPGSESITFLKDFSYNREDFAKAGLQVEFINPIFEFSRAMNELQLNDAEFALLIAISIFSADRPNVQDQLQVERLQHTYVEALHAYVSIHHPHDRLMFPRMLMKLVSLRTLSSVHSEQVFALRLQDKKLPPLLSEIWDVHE
Description: The following tests were carried out in order to determine the activity of the compounds of the present invention. Background information on the performed assays can be found in: Nichols J S et al. “Development of a scintillation proximity assay for peroxisome proliferator-activated receptor gamma ligand binding domain”, Anal Biochem. 1998, 257: 112-119.
Mammalian expression vectors were constructed to express full-length human LXR alpha and LXR beta. Bacterial expression vectors were constructed to produce glutathione-s-transferase (GST) fused to the ligand binding domains (LBD) of human LXR alpha (aa 164 to 447) and human LXR beta (aa 155 to 460). To accomplish this, the portions of the sequences encoding the LBDs were amplified from full-length clones by PCR and then subcloned into the plasmid vectors. Final clones were verified by DNA sequence analysis (Willy et al., Genes Dev. 1995, 9:1033-45; Song et al., Proc Natl Acad Sci USA. 1994, 91:10809-13).
Induction, expression, and purification of GST-LBD fusion proteins were performed in E. coli strain BL21 (pLysS) cells by standard methods (Ref: Current Protocols in Molecular Biology, Wiley Press, edited by Ausubel et al).
LXR alpha and LXR beta receptor binding were assayed in buffer consisting of 50 mM HEPES, pH 7.4, 10 mM NaCl, 5 mM MgCl2. For each 96-well reaction, 500 ng of GST-LXRα-LBD or 700 ng of GST-LXR beta-LBD fusion proteins were bound to 80 μg or 40 μg SPA beads (Pharmacia Amersham) respectively, in a final volume of 50 μl by shaking. The resulting slurry was incubated for 1 h at RT and centrifuged for 2 min at 1300×g. The supernatant containing unbound protein was removed, and the semi-dry pellet containing the receptor-coated beads was re-suspended in 50 μl of buffer. […] All binding assays were performed in 96-well plates and the amount of bound ligand was measured on a Packard TopCount using OptiPlates (Packard). Dose response curves were measured within a range of concentration from 10^−10 M to 10^−4 M.

[2] = biological target: T2, human LXR beta (GST-LXR beta-LBD) (Homo sapiens, UniProt P55055); test: Radioligand binding assay (SPA), LXR beta; settings: GST-LXR beta-LBD on SPA beads, read-out: LXRbeta Binding IC50
T2 construct: human LXR beta (aa 155 to 460); made in house; host or cells: E. coli BL21 (pLysS)
T2 sequence (P55055 155-460): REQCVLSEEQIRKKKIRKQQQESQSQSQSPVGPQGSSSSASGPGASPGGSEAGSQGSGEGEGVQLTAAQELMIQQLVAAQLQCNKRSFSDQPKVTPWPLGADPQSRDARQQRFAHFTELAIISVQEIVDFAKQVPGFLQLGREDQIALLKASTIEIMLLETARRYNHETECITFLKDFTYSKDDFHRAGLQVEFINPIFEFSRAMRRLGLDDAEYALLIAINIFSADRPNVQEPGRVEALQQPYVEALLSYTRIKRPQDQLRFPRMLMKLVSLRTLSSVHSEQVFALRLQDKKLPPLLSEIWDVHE
Description: The following tests were carried out in order to determine the activity of the compounds of the present invention.
Mammalian expression vectors were constructed to express full-length human LXR alpha and LXR beta. […] To accomplish this, the portions of the sequences encoding the LBDs were amplified from full-length clones by PCR and then subcloned into the plasmid vectors.
LXR alpha and LXR beta receptor binding were assayed in buffer consisting of 50 mM HEPES, pH 7.4, 10 mM NaCl, 5 mM MgCl2. […] The resulting slurry was incubated for 1 h at RT and centrifuged for 2 min at 1300×g. The supernatant containing unbound protein was removed, and the semi-dry pellet containing the receptor-coated beads was re-suspended in 50 μl of buffer. Radioligand (eg. 100,000 dpm of (N-(2,2,2-trifluoroethyl)-N-[4-(2,2,2-trifluoro-1-hydroxy-1-trifluoromethylethyl)-phenyl]-benzenesulfonamide)) was added, and the reaction incubated at RT for 1 h in the presence of test compounds, and then scintillation proximity counting was performed. All binding assays were performed in 96-well plates and the amount of bound ligand was measured on a Packard TopCount using OptiPlates (Packard). Dose response curves were measured within a range of concentration from 10^−10 M to 10^−4 M.

Row | IC50 [1] [µM] | IC50 [2] [µM] | Structure (SMILES)
1 | 0.046 |  | CCN(Cc1ccccc1)c1ccc(C(O)(C(F)(F)F)C(F)(F)F)cc1 [Example 1, 2-[4-(benzyl-ethyl-amino)-phenyl]-1,1,1,3,3,3-hexafluoro-propan-2-ol]
2 | 0.017 |  | CCN(Cc1cscn1)c1ccc(C(O)(C(F)(F)F)C(F)(F)F)cc1Cl [Example 18, 2-{3-chloro-4-[ethyl-(thiazol-4-ylmethyl)-amino]-phenyl}-1,1,1,3,3,3-hexafluoro-propan-2-ol]
3 | 0.0027 | 0.0057 | CCN(Cc1nc(-c2cccc(C(=O)OC)c2)oc1C)c1ccc(C(O)(C(F)(F)F)C(F)(F)F)cc1 [Example 30, 3-[4-({ethyl-[4-(2,2,2-trifluoro-1-hydroxy-1-trifluoromethyl-ethyl)-phenyl]-amino}-methyl)-5-methyl-oxazol-2-yl]-benzoic acid methyl ester]
